Laboratory results taken from US20080008674A1, “Use of C-glycoside derivative for improving the skin's barrier function” (L'OREAL, priority 2006, published 2008).
Marks after values point to notes of the source that are not given here.

Tested on: reconstructed epidermis (Episkin J13)
Experiment: Penetration of radiolabelled caffeine through reconstructed human epidermis (barrier function)
Format: cell-based
Details: for passage of [14C]-caffeine, percentage of passage relative to an untreated control: 5 days treatment
Protocol: The efficacy of the barrier function of a skin may be evaluated by measuring the passage through it of a labelled molecule, for instance radiolabelled caffeine.
Skin with an improved barrier function is thus characterized in that it slows down, or even reduces, the passage of the said molecule through its epidermis.
Two batches of reconstructed epidermis (Episkin J13) (batches 1 and 2) are treated for 5 days with the product C-β-D-xylopyranoside-n-propan-2-one, which is applied in the culture medium at a final concentration of 0.2% and 0.04% by weight/volume.
Vitamin C is used as reference molecule at a concentration of 200 μg/ml, in systemic treatment.
After 5 days of culturing, 100 μl and 2 UCi/ml, i.e. 0.04 mM of [^14C]-caffeine (radiolabelled caffeine) and 0.35 mM of cold caffeine (non-radiolabelled caffeine) are applied to the surface, and kinetics of uptake into the medium are determined at eight different times.
The results are expressed as a percentage of passage relative to an untreated control.

CC(=O)C[C@@H]1OC[C@@H](O)[C@H](O)[C@H]1O [C-β-D-xylopyranoside-n-propan-2-one]
passage of [14C]-caffeine, percentage of passage relative to an untreated control (Batch 1 of reconstructed epidermis, 0.04% AM, sample taken at 1 h 30): 52%
passage of [14C]-caffeine, percentage of passage relative to an untreated control (Batch 1 of reconstructed epidermis, 0.04% AM, sample taken at 3 h): 66%
passage of [14C]-caffeine, percentage of passage relative to an untreated control (Batch 1 of reconstructed epidermis, 0.04% AM, sample taken at 4 h): 64 * %
passage of [14C]-caffeine, percentage of passage relative to an untreated control (Batch 1 of reconstructed epidermis, 0.04% AM, sample taken at 5 h): 73 * %
passage of [14C]-caffeine, percentage of passage relative to an untreated control (Batch 1 of reconstructed epidermis, 0.04% AM, sample taken at 6 h): 70 * %
passage of [14C]-caffeine, percentage of passage relative to an untreated control (Batch 1 of reconstructed epidermis, 0.04% AM, sample taken at 7 h): 69 * %
passage of [14C]-caffeine, percentage of passage relative to an untreated control (Batch 1 of reconstructed epidermis, 0.04% AM, sample taken at 9 h): 77 * %
passage of [14C]-caffeine, percentage of passage relative to an untreated control (Batch 1 of reconstructed epidermis, 0.04% AM, sample taken at 24 h): 75 * %
passage of [14C]-caffeine, percentage of passage relative to an untreated control (Batch 1 of reconstructed epidermis, 0.2% AM, sample taken at 1 h 30): 66%
passage of [14C]-caffeine, percentage of passage relative to an untreated control (Batch 1 of reconstructed epidermis, 0.2% AM, sample taken at 3 h): 94%
passage of [14C]-caffeine, percentage of passage relative to an untreated control (Batch 1 of reconstructed epidermis, 0.2% AM, sample taken at 4 h): 59 * %
passage of [14C]-caffeine, percentage of passage relative to an untreated control (Batch 1 of reconstructed epidermis, 0.2% AM, sample taken at 5 h): 63 * %
passage of [14C]-caffeine, percentage of passage relative to an untreated control (Batch 1 of reconstructed epidermis, 0.2% AM, sample taken at 6 h): 63 * %
passage of [14C]-caffeine, percentage of passage relative to an untreated control (Batch 1 of reconstructed epidermis, 0.2% AM, sample taken at 7 h): 66 * %
passage of [14C]-caffeine, percentage of passage relative to an untreated control (Batch 1 of reconstructed epidermis, 0.2% AM, sample taken at 9 h): 79 * %
passage of [14C]-caffeine, percentage of passage relative to an untreated control (Batch 1 of reconstructed epidermis, 0.2% AM, sample taken at 24 h): 70 * %
passage of [14C]-caffeine, percentage of passage relative to an untreated control (Batch 2 of reconstructed epidermis, 0.04% AM, sample taken at 1 h): 143%
passage of [14C]-caffeine, percentage of passage relative to an untreated control (Batch 2 of reconstructed epidermis, 0.04% AM, sample taken at 2 h): 65 * %
passage of [14C]-caffeine, percentage of passage relative to an untreated control (Batch 2 of reconstructed epidermis, 0.04% AM, sample taken at 3 h): 92%
passage of [14C]-caffeine, percentage of passage relative to an untreated control (Batch 2 of reconstructed epidermis, 0.04% AM, sample taken at 4 h): 78 * %
passage of [14C]-caffeine, percentage of passage relative to an untreated control (Batch 2 of reconstructed epidermis, 0.04% AM, sample taken at 5 h): 84%
passage of [14C]-caffeine, percentage of passage relative to an untreated control (Batch 2 of reconstructed epidermis, 0.04% AM, sample taken at 6 h): 80 * %
passage of [14C]-caffeine, percentage of passage relative to an untreated control (Batch 2 of reconstructed epidermis, 0.04% AM, sample taken at 7 h): 91%
passage of [14C]-caffeine, percentage of passage relative to an untreated control (Batch 2 of reconstructed epidermis, 0.04% AM, sample taken at 8 h): 88 * %
passage of [14C]-caffeine, percentage of passage relative to an untreated control (Batch 2 of reconstructed epidermis, 0.04% AM, sample taken at 9 h): 93%
passage of [14C]-caffeine, percentage of passage relative to an untreated control (Batch 2 of reconstructed epidermis, 0.04% AM, sample taken at 10 h): 85 * %
passage of [14C]-caffeine, percentage of passage relative to an untreated control (Batch 2 of reconstructed epidermis, 0.04% AM, sample taken at 24 h): 99%
passage of [14C]-caffeine, percentage of passage relative to an untreated control (Batch 2 of reconstructed epidermis, 0.2% AM, sample taken at 1 h): 162%
passage of [14C]-caffeine, percentage of passage relative to an untreated control (Batch 2 of reconstructed epidermis, 0.2% AM, sample taken at 2 h): 61 * %
passage of [14C]-caffeine, percentage of passage relative to an untreated control (Batch 2 of reconstructed epidermis, 0.2% AM, sample taken at 3 h): 82%
passage of [14C]-caffeine, percentage of passage relative to an untreated control (Batch 2 of reconstructed epidermis, 0.2% AM, sample taken at 4 h): 67 * %
passage of [14C]-caffeine, percentage of passage relative to an untreated control (Batch 2 of reconstructed epidermis, 0.2% AM, sample taken at 5 h): 75 * %
passage of [14C]-caffeine, percentage of passage relative to an untreated control (Batch 2 of reconstructed epidermis, 0.2% AM, sample taken at 6 h): 75 * %
passage of [14C]-caffeine, percentage of passage relative to an untreated control (Batch 2 of reconstructed epidermis, 0.2% AM, sample taken at 7 h): 84 * %
passage of [14C]-caffeine, percentage of passage relative to an untreated control (Batch 2 of reconstructed epidermis, 0.2% AM, sample taken at 8 h): 80 * %
passage of [14C]-caffeine, percentage of passage relative to an untreated control (Batch 2 of reconstructed epidermis, 0.2% AM, sample taken at 9 h): 88%
passage of [14C]-caffeine, percentage of passage relative to an untreated control (Batch 2 of reconstructed epidermis, 0.2% AM, sample taken at 10 h): 80 * %
passage of [14C]-caffeine, percentage of passage relative to an untreated control (Batch 2 of reconstructed epidermis, 0.2% AM, sample taken at 24 h): 95%
slowing down of caffeine passage compared with vitamin C (reference molecule) (result in words, comparison with vitamin C 200 μg/ml): greater
effect on the passage of the radiolabelled caffeine through the reconstructed epidermides (barrier function) (result in words, two batches of reconstructed epidermis): slows down the passage of the radiolabelled caffeine

O=C1O[C@H]([C@@H](O)CO)C(O)=C1O [Vitamin C, reference compound]
passage of [14C]-caffeine, percentage of passage relative to an untreated control (Batch 1 of reconstructed epidermis, 200 μg/ml, sample taken at 1 h 30): 81%
passage of [14C]-caffeine, percentage of passage relative to an untreated control (Batch 1 of reconstructed epidermis, 200 μg/ml, sample taken at 3 h): 95%
passage of [14C]-caffeine, percentage of passage relative to an untreated control (Batch 1 of reconstructed epidermis, 200 μg/ml, sample taken at 4 h): 81%
passage of [14C]-caffeine, percentage of passage relative to an untreated control (Batch 1 of reconstructed epidermis, 200 μg/ml, sample taken at 5 h): 80 * %
passage of [14C]-caffeine, percentage of passage relative to an untreated control (Batch 1 of reconstructed epidermis, 200 μg/ml, sample taken at 6 h): 86%
passage of [14C]-caffeine, percentage of passage relative to an untreated control (Batch 1 of reconstructed epidermis, 200 μg/ml, sample taken at 7 h): 75 * %
passage of [14C]-caffeine, percentage of passage relative to an untreated control (Batch 1 of reconstructed epidermis, 200 μg/ml, sample taken at 9 h): 85%
passage of [14C]-caffeine, percentage of passage relative to an untreated control (Batch 1 of reconstructed epidermis, 200 μg/ml, sample taken at 24 h): 85%
passage of [14C]-caffeine, percentage of passage relative to an untreated control (Batch 2 of reconstructed epidermis, 200 μg/ml, sample taken at 1 h): 117%
passage of [14C]-caffeine, percentage of passage relative to an untreated control (Batch 2 of reconstructed epidermis, 200 μg/ml, sample taken at 2 h): 77 * %
passage of [14C]-caffeine, percentage of passage relative to an untreated control (Batch 2 of reconstructed epidermis, 200 μg/ml, sample taken at 3 h): 84%
passage of [14C]-caffeine, percentage of passage relative to an untreated control (Batch 2 of reconstructed epidermis, 200 μg/ml, sample taken at 4 h): 86 * %
passage of [14C]-caffeine, percentage of passage relative to an untreated control (Batch 2 of reconstructed epidermis, 200 μg/ml, sample taken at 5 h): 71 * %
passage of [14C]-caffeine, percentage of passage relative to an untreated control (Batch 2 of reconstructed epidermis, 200 μg/ml, sample taken at 6 h): 94%
passage of [14C]-caffeine, percentage of passage relative to an untreated control (Batch 2 of reconstructed epidermis, 200 μg/ml, sample taken at 7 h): 95%
passage of [14C]-caffeine, percentage of passage relative to an untreated control (Batch 2 of reconstructed epidermis, 200 μg/ml, sample taken at 8 h): 96%
passage of [14C]-caffeine, percentage of passage relative to an untreated control (Batch 2 of reconstructed epidermis, 200 μg/ml, sample taken at 9 h): 85%
passage of [14C]-caffeine, percentage of passage relative to an untreated control (Batch 2 of reconstructed epidermis, 200 μg/ml, sample taken at 10 h): 95%
passage of [14C]-caffeine, percentage of passage relative to an untreated control (Batch 2 of reconstructed epidermis, 200 μg/ml, sample taken at 24 h): 99%
